According to ChEMBL document CHEMBL4219026, “A Cereblon Modulator (CC-220) with Improved Degradation of Ikaros and Aiolos” (J Med Chem, 2018):
The source made the active and inactive calls. The rule behind the calls is not given here.

Columns and labels:
[1] = molecular target: Cereblon/Casein kinase I alpha (Homo sapiens) (UniProt P48729+Q96SW2); assay: Induction of cereblon-mediated CK1alpha (unknown origin) degradation in at 0.0005 to 10 uM after 4 hrs by cell-based chemiluminescent assay
[2] = molecular target: Protein cereblon/Eukaryotic peptide chain release factor GTP-binding subunit ERF3A (Homo sapiens) (UniProt Q96SW2+P15170); assay: Induction of cereblon-mediated GSPT1 degradation in human DF15 cells expressing ePL-tagged GSPT1 at 0.0005 to 10 uM after 4 hrs by luminometric analysis; format: cell-based
Protein cereblon/Eukaryotic peptide chain release factor GTP-binding subunit ERF3A (Homo sapiens), sequence (P15170 whole entry, looked up): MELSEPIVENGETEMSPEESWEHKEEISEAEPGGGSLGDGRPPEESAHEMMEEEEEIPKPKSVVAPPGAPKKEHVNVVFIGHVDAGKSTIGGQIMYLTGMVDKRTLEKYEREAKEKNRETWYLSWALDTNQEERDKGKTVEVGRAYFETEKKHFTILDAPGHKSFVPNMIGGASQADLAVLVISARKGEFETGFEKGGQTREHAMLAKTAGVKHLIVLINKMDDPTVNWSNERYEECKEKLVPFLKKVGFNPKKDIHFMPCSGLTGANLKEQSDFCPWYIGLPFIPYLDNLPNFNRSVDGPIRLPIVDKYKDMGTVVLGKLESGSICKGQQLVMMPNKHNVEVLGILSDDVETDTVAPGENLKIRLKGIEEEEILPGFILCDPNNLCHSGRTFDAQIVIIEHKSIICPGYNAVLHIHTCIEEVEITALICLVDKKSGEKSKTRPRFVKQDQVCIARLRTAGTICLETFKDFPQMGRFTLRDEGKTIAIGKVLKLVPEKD
Protein cereblon/Eukaryotic peptide chain release factor GTP-binding subunit ERF3A (Homo sapiens), sequence (Q96SW2 whole entry, looked up): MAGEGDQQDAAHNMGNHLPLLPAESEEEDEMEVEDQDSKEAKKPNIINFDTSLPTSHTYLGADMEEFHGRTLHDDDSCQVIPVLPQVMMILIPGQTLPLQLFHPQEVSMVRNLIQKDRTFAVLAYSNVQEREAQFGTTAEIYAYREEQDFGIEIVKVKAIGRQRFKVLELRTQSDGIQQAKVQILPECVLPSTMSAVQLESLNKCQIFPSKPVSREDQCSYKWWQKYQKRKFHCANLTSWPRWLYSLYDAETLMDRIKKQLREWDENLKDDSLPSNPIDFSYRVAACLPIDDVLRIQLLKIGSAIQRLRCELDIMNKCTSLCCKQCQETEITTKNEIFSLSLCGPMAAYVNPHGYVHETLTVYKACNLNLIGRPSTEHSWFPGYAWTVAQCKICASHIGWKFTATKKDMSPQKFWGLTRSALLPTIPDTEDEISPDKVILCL

Cereblon/Casein kinase I alpha (Homo sapiens), sequence (P48729 2-337 limits assumed): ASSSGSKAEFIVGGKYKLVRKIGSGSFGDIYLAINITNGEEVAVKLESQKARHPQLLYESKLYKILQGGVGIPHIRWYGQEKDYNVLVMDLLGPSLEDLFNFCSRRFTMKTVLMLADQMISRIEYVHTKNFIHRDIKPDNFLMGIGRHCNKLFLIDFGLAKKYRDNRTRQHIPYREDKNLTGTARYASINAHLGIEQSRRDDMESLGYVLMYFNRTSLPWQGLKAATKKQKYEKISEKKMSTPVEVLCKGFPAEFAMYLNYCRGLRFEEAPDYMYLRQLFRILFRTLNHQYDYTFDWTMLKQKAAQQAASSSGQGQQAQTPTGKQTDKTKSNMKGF
Cereblon/Casein kinase I alpha (Homo sapiens), sequence (Q96SW2 whole entry partner): as the sequence (Q96SW2 whole entry, looked up) above

Activity [1]: inactive
Activity [2]: inactive
SMILES: O=C1CC[C@H](N2Cc3c(OCc4ccc(CN5CCOCC5)cc4)cccc3C2=O)C(=O)N1
